Test results as given in PubChem BioAssay (NCI).
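Five compound concentrations were applied to cells in 96-well plates for 48 hours; endpoints were derived by simple linear interpolation of the resulting dose-response curve. TGI: concentration producing complete growth inhibition.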

system: M14 melanoma; assay: DTP human tumour cell line panel, 48 h

Compound | TGI [µM]
CN1C(=O)C(O)CC1c1ccc(C(F)(F)F)cc1 (configuration not stated) | > 100
CC1=C(C(=O)OCCc2ccc([N+](=O)[O-])cc2)C(c2cccc([N+](=O)[O-])c2)C(C(=O)OC(C)C)=C(C)N1 (configuration not stated) | > 100
Cc1cccc(C)c1NC(=O)/C=C/c1ccccc1 | > 100
COc1ccc2c(N=[N+]=[N-])c(-c3ccccc3)c(=O)oc2c1 | > 100

system: SK-MEL-28 melanoma; assay: DTP human tumour cell line panel, 48 h

Compound | TGI [µM]
N=c1c2c(=S)n(-c3ccccc3)c(=S)n(-c3ccccc3)c2nc(SCCCN2CCCCC2)n1-c1ccccc1 | 5.1
CN1C(=O)C(O)CC1c1ccc(C(F)(F)F)cc1 (configuration not stated) | > 100
CC1=C(C(=O)OCCc2ccc([N+](=O)[O-])cc2)C(c2cccc([N+](=O)[O-])c2)C(C(=O)OC(C)C)=C(C)N1 (configuration not stated) | > 100
Cc1cccc(C)c1NC(=O)/C=C/c1ccccc1 | > 100
COc1ccc2c(N=[N+]=[N-])c(-c3ccccc3)c(=O)oc2c1 | > 100

system: SF-295 CNS; assay: DTP human tumour cell line panel, 48 h

Compound | TGI [µM]
N=c1c2c(=S)n(-c3ccccc3)c(=S)n(-c3ccccc3)c2nc(SCCCN2CCCCC2)n1-c1ccccc1 | 12.6
CN1C(=O)C(O)CC1c1ccc(C(F)(F)F)cc1 (configuration not stated) | > 100
CC1=C(C(=O)OCCc2ccc([N+](=O)[O-])cc2)C(c2cccc([N+](=O)[O-])c2)C(C(=O)OC(C)C)=C(C)N1 (configuration not stated) | > 100
Cc1cccc(C)c1NC(=O)/C=C/c1ccccc1 | > 100
COc1ccc2c(N=[N+]=[N-])c(-c3ccccc3)c(=O)oc2c1 | > 100

system: RPMI-8226 leukemia; assay: DTP human tumour cell line panel, 48 h

Compound | TGI [µM]
N=c1c2c(=S)n(-c3ccccc3)c(=S)n(-c3ccccc3)c2nc(SCCCN2CCCCC2)n1-c1ccccc1 | > 100
CN1C(=O)C(O)CC1c1ccc(C(F)(F)F)cc1 (configuration not stated) | > 100
Cc1cccc(C)c1NC(=O)/C=C/c1ccccc1 | > 100
COc1ccc2c(N=[N+]=[N-])c(-c3ccccc3)c(=O)oc2c1 | > 100

system: DU-145 prostate; assay: DTP human tumour cell line panel, 48 h

Compound | TGI [µM]
N=c1c2c(=S)n(-c3ccccc3)c(=S)n(-c3ccccc3)c2nc(SCCCN2CCCCC2)n1-c1ccccc1 | 3.03
CN1C(=O)C(O)CC1c1ccc(C(F)(F)F)cc1 (configuration not stated) | > 100
CC1=C(C(=O)OCCc2ccc([N+](=O)[O-])cc2)C(c2cccc([N+](=O)[O-])c2)C(C(=O)OC(C)C)=C(C)N1 (configuration not stated) | > 100
Cc1cccc(C)c1NC(=O)/C=C/c1ccccc1 | > 100
COc1ccc2c(N=[N+]=[N-])c(-c3ccccc3)c(=O)oc2c1 | > 100

system: SK-OV-3 ovarian; assay: DTP human tumour cell line panel, 48 h

Compound | TGI [µM]
N=c1c2c(=S)n(-c3ccccc3)c(=S)n(-c3ccccc3)c2nc(SCCCN2CCCCC2)n1-c1ccccc1 | 5.34
CN1C(=O)C(O)CC1c1ccc(C(F)(F)F)cc1 (configuration not stated) | > 100
CC1=C(C(=O)OCCc2ccc([N+](=O)[O-])cc2)C(c2cccc([N+](=O)[O-])c2)C(C(=O)OC(C)C)=C(C)N1 (configuration not stated) | > 100
Cc1cccc(C)c1NC(=O)/C=C/c1ccccc1 | > 100
COc1ccc2c(N=[N+]=[N-])c(-c3ccccc3)c(=O)oc2c1 | > 100

system: HCT-116 colon; assay: DTP human tumour cell line panel, 48 h

Compound | TGI [µM]
N=c1c2c(=S)n(-c3ccccc3)c(=S)n(-c3ccccc3)c2nc(SCCCN2CCCCC2)n1-c1ccccc1 | 3.1
CN1C(=O)C(O)CC1c1ccc(C(F)(F)F)cc1 (configuration not stated) | > 100
CC1=C(C(=O)OCCc2ccc([N+](=O)[O-])cc2)C(c2cccc([N+](=O)[O-])c2)C(C(=O)OC(C)C)=C(C)N1 (configuration not stated) | > 100
Cc1cccc(C)c1NC(=O)/C=C/c1ccccc1 | > 100
COc1ccc2c(N=[N+]=[N-])c(-c3ccccc3)c(=O)oc2c1 | > 100

system: MALME-3M melanoma; assay: DTP human tumour cell line panel, 48 h

Compound | TGI [µM]
N=c1c2c(=S)n(-c3ccccc3)c(=S)n(-c3ccccc3)c2nc(SCCCN2CCCCC2)n1-c1ccccc1 | 3.31
CN1C(=O)C(O)CC1c1ccc(C(F)(F)F)cc1 (configuration not stated) | > 100
CC1=C(C(=O)OCCc2ccc([N+](=O)[O-])cc2)C(c2cccc([N+](=O)[O-])c2)C(C(=O)OC(C)C)=C(C)N1 (configuration not stated) | > 100
Cc1cccc(C)c1NC(=O)/C=C/c1ccccc1 | > 100
COc1ccc2c(N=[N+]=[N-])c(-c3ccccc3)c(=O)oc2c1 | > 100

system: T-47D breast; assay: DTP human tumour cell line panel, 48 h

Compound | TGI [µM]
N=c1c2c(=S)n(-c3ccccc3)c(=S)n(-c3ccccc3)c2nc(SCCCN2CCCCC2)n1-c1ccccc1 | 5.78
CN1C(=O)C(O)CC1c1ccc(C(F)(F)F)cc1 (configuration not stated) | > 100
CC1=C(C(=O)OCCc2ccc([N+](=O)[O-])cc2)C(c2cccc([N+](=O)[O-])c2)C(C(=O)OC(C)C)=C(C)N1 (configuration not stated) | > 100
Cc1cccc(C)c1NC(=O)/C=C/c1ccccc1 | > 100
COc1ccc2c(N=[N+]=[N-])c(-c3ccccc3)c(=O)oc2c1 | > 100

system: OVCAR-4 ovarian; assay: DTP human tumour cell line panel, 48 h

Compound | TGI [µM]
N=c1c2c(=S)n(-c3ccccc3)c(=S)n(-c3ccccc3)c2nc(SCCCN2CCCCC2)n1-c1ccccc1 | 3.23
CN1C(=O)C(O)CC1c1ccc(C(F)(F)F)cc1 (configuration not stated) | > 100
CC1=C(C(=O)OCCc2ccc([N+](=O)[O-])cc2)C(c2cccc([N+](=O)[O-])c2)C(C(=O)OC(C)C)=C(C)N1 (configuration not stated) | > 100
Cc1cccc(C)c1NC(=O)/C=C/c1ccccc1 | > 100

system: MOLT-4 leukemia; assay: DTP human tumour cell line panel, 48 h

Compound | TGI [µM]
CN1C(=O)C(O)CC1c1ccc(C(F)(F)F)cc1 (configuration not stated) | > 100
CC1=C(C(=O)OCCc2ccc([N+](=O)[O-])cc2)C(c2cccc([N+](=O)[O-])c2)C(C(=O)OC(C)C)=C(C)N1 (configuration not stated) | > 100
Cc1cccc(C)c1NC(=O)/C=C/c1ccccc1 | > 100
COc1ccc2c(N=[N+]=[N-])c(-c3ccccc3)c(=O)oc2c1 | 73.1

system: COLO 205 colon; assay: DTP human tumour cell line panel, 48 h

Compound | TGI [µM]
N=c1c2c(=S)n(-c3ccccc3)c(=S)n(-c3ccccc3)c2nc(SCCCN2CCCCC2)n1-c1ccccc1 | 3.19
CN1C(=O)C(O)CC1c1ccc(C(F)(F)F)cc1 (configuration not stated) | > 100
CC1=C(C(=O)OCCc2ccc([N+](=O)[O-])cc2)C(c2cccc([N+](=O)[O-])c2)C(C(=O)OC(C)C)=C(C)N1 (configuration not stated) | > 100
Cc1cccc(C)c1NC(=O)/C=C/c1ccccc1 | > 100
COc1ccc2c(N=[N+]=[N-])c(-c3ccccc3)c(=O)oc2c1 | > 100

system: SR leukemia; assay: DTP human tumour cell line panel, 48 h

Compound | TGI [µM]
CC1=C(C(=O)OCCc2ccc([N+](=O)[O-])cc2)C(c2cccc([N+](=O)[O-])c2)C(C(=O)OC(C)C)=C(C)N1 (configuration not stated) | > 100
Cc1cccc(C)c1NC(=O)/C=C/c1ccccc1 | > 100
COc1ccc2c(N=[N+]=[N-])c(-c3ccccc3)c(=O)oc2c1 | 67.1

system: CCRF-CEM leukemia; assay: DTP human tumour cell line panel, 48 h

Compound | TGI [µM]
N=c1c2c(=S)n(-c3ccccc3)c(=S)n(-c3ccccc3)c2nc(SCCCN2CCCCC2)n1-c1ccccc1 | 1.41
CN1C(=O)C(O)CC1c1ccc(C(F)(F)F)cc1 (configuration not stated) | > 100
CC1=C(C(=O)OCCc2ccc([N+](=O)[O-])cc2)C(c2cccc([N+](=O)[O-])c2)C(C(=O)OC(C)C)=C(C)N1 (configuration not stated) | > 100
Cc1cccc(C)c1NC(=O)/C=C/c1ccccc1 | > 100
COc1ccc2c(N=[N+]=[N-])c(-c3ccccc3)c(=O)oc2c1 | > 100

system: HOP-92 NSCLC; assay: DTP human tumour cell line panel, 48 h

Compound | TGI [µM]
N=c1c2c(=S)n(-c3ccccc3)c(=S)n(-c3ccccc3)c2nc(SCCCN2CCCCC2)n1-c1ccccc1 | 3.28
CN1C(=O)C(O)CC1c1ccc(C(F)(F)F)cc1 (configuration not stated) | > 100

system: UO-31 renal; assay: DTP human tumour cell line panel, 48 h

Compound | TGI [µM]
CN1C(=O)C(O)CC1c1ccc(C(F)(F)F)cc1 (configuration not stated) | > 100
